Experimental data published in ChEMBL document CHEMBL1130866, “Conodiparines A-D, new bisindoles from Tabernaemontana. Reversal of vincristine-resistance with cultured cells” (Bioorg Med Chem Lett, 1998).
Converted amounts (≈) assume the structure as drawn.

Tests used:
Type in all cases: functional, cell-based
KB [1] = test: Compound was evaluated for its cytotoxicity against vincristine-resistant KB/VJ300 human oral epidermoid carcinoma cell lines.
KB [2] = test: Compound was evaluated for its cytotoxicity against vincristine-resistant KB/VJ300 human oral epidermoid carcinoma cell lines, with added vincristine 0.25 ug/mL.
KB [3] = test: Compound was evaluated for its cytotoxicity against vincristine-sensitive KB/S human oral epidermoid carcinoma cell lines.

C/C=C1/CN(C)[C@H]2Cc3c([nH]c4ccccc34)[C@@H](c3c(OC)ccc4c5c([nH]c34)[C@]3(C(=O)OC)C[C@@H]4C[C@H]([C@H](C)O)C3N(CC5)C4)C[C@H]1[C@]2(CO)C(=O)OC
IC50 (KB [1]): 15 mg/L (≈ 20 µM)
IC50 (KB [2]): 2.45 mg/L (≈ 3.26 µM)
IC50 (KB [3]): 20.8 mg/L (≈ 27.7 µM)

C/C=C1/CN(C)[C@H]2Cc3c([nH]c4ccccc34)[C@@H](c3c(OC)ccc4c5c([nH]c34)[C@]3(C(=O)OC)C[C@@H]4C[C@H](C(C)=O)C3N(CC5)C4)C[C@H]1[C@]2(CO)C(=O)OC
IC50 (KB [1]): 13.6 mg/L (≈ 18.2 µM)
IC50 (KB [2]): 4.6 mg/L (≈ 6.14 µM)
IC50 (KB [3]): 18.6 mg/L (≈ 24.8 µM)

C/C=C1\CN(C)[C@H]2Cc3c([nH]c4ccccc34)[C@@H](c3cc4c5c([nH]c4cc3OC)[C@]3(C(=O)OC)C[C@@H]4C[C@H]([C@H](C)O)C3N(CC5)C4)C[C@H]1[C@]2(CO)C(=O)OC
IC50 (KB [1]): 13.5 mg/L (≈ 18 µM)
IC50 (KB [2]): 1.45 mg/L (≈ 1.93 µM)
IC50 (KB [3]): 19.2 mg/L (≈ 25.6 µM)

C/C=C1/CN(C)[C@H]2Cc3c([nH]c4ccccc34)[C@@H](c3cc4c5c([nH]c4cc3OC)[C@]3(C(=O)OC)C[C@@H]4C[C@H](C(C)=O)[C@@H]3N(CC5)C4)C[C@H]1[C@]2(CO)C(=O)OC
IC50 (KB [1]): 17 mg/L (≈ 22.7 µM)
IC50 (KB [2]): 5.6 mg/L (≈ 7.48 µM)
IC50 (KB [3]): 21.4 mg/L (≈ 28.6 µM)

CC[C@]1(O)C[C@H]2CN(CCc3c([nH]c4ccccc34)[C@@](C(=O)OC)(c3cc4c(cc3OC)N(C=O)[C@H]3[C@@](O)(C(=O)OC)[C@H](OC(C)=O)[C@]5(CC)C=CCN6CC[C@]43[C@@H]65)C2)C1 [VINCRISTINE]
IC50 (KB [1]): 1.05 mg/L (≈ 1.27 µM)
IC50 (KB [3]): 0.014 mg/L (≈ 0.017 µM)
